Test results published in patent US5730876A, “Separation and purification of low molecular weight chitosan using multi-step membrane separation process” (You; Hyang-Ja, priority 1997, dated 1998).
Where a name gives a salt, the structure may show the parent alone.

Experiments:
[1] = CH3OH solubility of chitosan oligosaccharides (Table 1); assay type: physicochemical; conditions: methanol, organic solvent or mixture
[2] = Solubility in water of chitosan oligosaccharides (Table 1); assay type: physicochemical
[3] = CH3OH, 20° C., read-out: CH3OH Solubility
[4] = in water, read-out: Solubility (% in water)

solubility [1, 3] [mg/mL]	solubility [2, 4] [mg/mL]	solubility [1] [mg/mL]	solubility ([2]; water) [mg/mL]	SMILES
54	1900	–	–	N[C@H]1[C@H](O[C@H]2[C@H](O)[C@@H](N)C(O)O[C@@H]2CO)O[C@H](CO)[C@@H](O)[C@@H]1O (stereo partly drawn) [Chitobiose HCl]
370	1770	–	–	N[C@H]1[C@H](O[C@H]2[C@H](O)[C@@H](N)[C@H](O[C@H]3[C@H](O)[C@@H](N)C(O)O[C@@H]3CO)O[C@@H]2CO)O[C@H](CO)[C@@H](O)[C@@H]1O (stereo partly drawn) [Chitotriose HCl]

Continued, compound first:

SMILES	solubility [1, 3] [mg/mL]	solubility [2, 4] [mg/mL]	solubility [1] [mg/mL]	solubility ([2]; water) [mg/mL]
N[C@H]1[C@H](O[C@H]2[C@H](O)[C@@H](N)[C@H](O[C@H]3[C@H](O)[C@@H](N)[C@H](O[C@H]4[C@H](O)[C@@H](N)[C@H](O[C@H]5[C@H](O)[C@@H](N)C(O)O[C@@H]5CO)O[C@@H]4CO)O[C@@H]3CO)O[C@@H]2CO)O[C@H](CO)[C@@H](O)[C@@H]1O (stereo partly drawn) [Chitopentose HCl]	46	860	–	–
N[C@H]1[C@H](O[C@H]2[C@H](O)[C@@H](N)[C@H](O[C@H]3[C@H](O)[C@@H](N)[C@H](O[C@H]4[C@H](O)[C@@H](N)C(O)O[C@@H]4CO)O[C@@H]3CO)O[C@@H]2CO)O[C@H](CO)[C@@H](O)[C@@H]1O (stereo partly drawn) [Chitotetrose HCl]	450	1580	–	–
N[C@H]1[C@H](O[C@H]2[C@H](O)[C@@H](N)[C@H](O[C@H]3[C@H](O)[C@@H](N)[C@H](O[C@H]4[C@H](O)[C@@H](N)[C@H](O[C@H]5[C@H](O)[C@@H](N)[C@H](O[C@H]6[C@H](O)[C@@H](N)C(O)O[C@@H]6CO)O[C@@H]5CO)O[C@@H]4CO)O[C@@H]3CO)O[C@@H]2CO)O[C@H](CO)[C@@H](O)[C@@H]1O (stereo partly drawn) [Chitohexose HCl]	17	680	–	–
Cl.N[C@H]1C(O)O[C@H](CO)[C@@H](O)[C@@H]1O (stereo partly drawn) [D-Glucosamine HCl]	–	–	4	371
